Source: ChEMBL document CHEMBL3885881, “DrugMatrix”

Organism: Rattus norvegicus
Assay: DrugMatrix - Regimen: Daily Repeat
Type: toxicity, organism-based, Sprague-Dawley
Set-up: regimen Daily Repeat, gender Male, age 6-8 weeks
Conditions: in vivo, po, route oral GAVAGE, vehicle .5 % CMC; for ABSOLUTE BASOPHIL / ABSOLUTE EOSINOPHIL / ABSOLUTE LYMPHOCYTE / ABSOLUTE MONOCYTE / ABSOLUTE SEGMENTED NEUTROPHIL / BASOPHIL / EOSINOPHIL / ERYTHROCYTE COUNT / HEMATOCRIT / HEMOGLOBIN / LEUKOCYTE COUNT / LYMPHOCYTE / MEAN CORPUSCULAR HEMOGLOBIN / MEAN CORPUSCULAR HEMOGLOBIN CONCENTRATION / MEAN CORPUSCULAR VOLUME / MONOCYTE / NEUTROPHIL / NUCLEATED RED BLOOD CELLS / PLATELET COUNT: tissue Blood; for ALANINE AMINOTRANSFERASE / ALBUMIN / ALKALINE PHOSPHATASE / ASPARTATE AMINOTRANSFERASE / BLOOD UREA NITROGEN / CARBON DIOXIDE / CHLORIDE / CHOLESTEROL / CREATINE PHOSPHOKINASE / CREATININE / GLUCOSE / LACTATE DEHYDROGENASE / LIPASE / PHOSPHORUS / POTASSIUM / SODIUM / TOTAL BILIRUBIN / TOTAL PROTEIN / URIC ACID: tissue Plasma
[1] = 0 mg/kg, 72 h, dose level Control, time 3 day
[2] = 0 mg/kg, 120 h, dose level Control, time 5 day
[3] = 44 mg/kg, 72 h, dose level Low, time 3 day

SMILES: Brc1ccccc1 [BROMOBENZENE]
- ABSOLUTE BASOPHIL [1]: 0 CELLS/uL
- ABSOLUTE EOSINOPHIL [1]: 15.17 CELLS/uL
- ABSOLUTE LYMPHOCYTE [1]: 10149.83 CELLS/uL
- ABSOLUTE MONOCYTE [1]: 193.33 CELLS/uL
- ABSOLUTE SEGMENTED NEUTROPHIL [1]: 1575 CELLS/uL
- BASOPHIL [1]: 0%
- EOSINOPHIL [1]: 0.17%
- ERYTHROCYTE COUNT [1]: 5.53 x10E6/uL
- HEMATOCRIT [1]: 34.7%
- HEMOGLOBIN [1]: 12.78 G/DL
- LEUKOCYTE COUNT [1]: 11.93 x10E3/uL
- LYMPHOCYTE [1]: 85.5%
- MEAN CORPUSCULAR HEMOGLOBIN [1]: 23.15 pg
- MEAN CORPUSCULAR HEMOGLOBIN CONCENTRATION [1]: 36.9 G/DL
- MEAN CORPUSCULAR VOLUME [1]: 62.82 fL
- MONOCYTE [1]: 1.5%
- NEUTROPHIL [1]: 12.83%
- NUCLEATED RED BLOOD CELLS [1]: 0.5 /100WBC
- PLATELET COUNT [1]: 994.17 x10E3/uL
- ALANINE AMINOTRANSFERASE [1]: 48.17 u/L
- ALBUMIN [1]: 4.37 G/DL
- ALKALINE PHOSPHATASE [1]: 436.5 u/L
- ASPARTATE AMINOTRANSFERASE [1]: 83.17 u/L
- BLOOD UREA NITROGEN [1]: 14.67 mg/dL
- CARBON DIOXIDE [1]: 30.83 mmol/L
- CHLORIDE [1]: 99.17 MEQ/L
- CHOLESTEROL [1]: 86.33 mg/dL
- CREATINE PHOSPHOKINASE [1]: 243.33 u/L
- CREATININE [1]: 0.25 mg/dL
- GLUCOSE [1]: 158 mg/dL
- LACTATE DEHYDROGENASE [1]: 262.33 u/L
- LIPASE [1]: 11 u/L
- PHOSPHORUS [1]: 12.07 mg/dL
- POTASSIUM [1]: 6.52 MEQ/L
- SODIUM [1]: 142.45 MEQ/L
- TOTAL BILIRUBIN [1]: 0.17 mg/dL
- TOTAL PROTEIN [1]: 6.25 G/DL
- URIC ACID [1]: 1.42 mg/dL
- ABSOLUTE BASOPHIL [2]: 0 CELLS/uL
- ABSOLUTE EOSINOPHIL [2]: 0 CELLS/uL
- ABSOLUTE LYMPHOCYTE [2]: 10076.67 CELLS/uL
- ABSOLUTE MONOCYTE [2]: 124 CELLS/uL
- ABSOLUTE SEGMENTED NEUTROPHIL [2]: 966 CELLS/uL
- BASOPHIL [2]: 0%
- EOSINOPHIL [2]: 0%
- ERYTHROCYTE COUNT [2]: 5.57 x10E6/uL
- HEMATOCRIT [2]: 33.37%
- HEMOGLOBIN [2]: 12.73 G/DL
- LEUKOCYTE COUNT [2]: 11.17 x10E3/uL
- LYMPHOCYTE [2]: 90.33%
- MEAN CORPUSCULAR HEMOGLOBIN [2]: 22.9 pg
- MEAN CORPUSCULAR HEMOGLOBIN CONCENTRATION [2]: 38.18 G/DL
- MEAN CORPUSCULAR VOLUME [2]: 59.97 fL
- MONOCYTE [2]: 1%
- NEUTROPHIL [2]: 8.67%
- NUCLEATED RED BLOOD CELLS [2]: 0 /100WBC
- PLATELET COUNT [2]: 1078 x10E3/uL
- ALANINE AMINOTRANSFERASE [2]: 37.17 u/L
- ALBUMIN [2]: 4.2 G/DL
- ALKALINE PHOSPHATASE [2]: 322.17 u/L
- ASPARTATE AMINOTRANSFERASE [2]: 67.67 u/L
- BLOOD UREA NITROGEN [2]: 14 mg/dL
- CARBON DIOXIDE [2]: 27.67 mmol/L
- CHLORIDE [2]: 102.17 MEQ/L
- CHOLESTEROL [2]: 67.67 mg/dL
- CREATINE PHOSPHOKINASE [2]: 171.83 u/L
- CREATININE [2]: 0.27 mg/dL
- GLUCOSE [2]: 172 mg/dL
- LACTATE DEHYDROGENASE [2]: 85.33 u/L
- LIPASE [2]: 8.67 u/L
- PHOSPHORUS [2]: 12 mg/dL
- POTASSIUM [2]: 6.09 MEQ/L
- SODIUM [2]: 144.82 MEQ/L
- TOTAL BILIRUBIN [2]: 0.13 mg/dL
- TOTAL PROTEIN [2]: 6.07 G/DL
- URIC ACID [2]: 2.13 mg/dL
- ABSOLUTE BASOPHIL [3]: 0 CELLS/uL
- ABSOLUTE EOSINOPHIL [3]: 0 CELLS/uL
- ABSOLUTE LYMPHOCYTE [3]: 8803 CELLS/uL
- ABSOLUTE MONOCYTE [3]: 197 CELLS/uL
- ABSOLUTE SEGMENTED NEUTROPHIL [3]: 1233.33 CELLS/uL
- BASOPHIL [3]: 0%
- EOSINOPHIL [3]: 0%
- ERYTHROCYTE COUNT [3]: 5.29 x10E6/uL
- HEMATOCRIT [3]: 32.6%
- HEMOGLOBIN [3]: 12.17 G/DL
- LEUKOCYTE COUNT [3]: 10.23 x10E3/uL
- LYMPHOCYTE [3]: 86.33%
- MEAN CORPUSCULAR HEMOGLOBIN [3]: 23 pg
- MEAN CORPUSCULAR HEMOGLOBIN CONCENTRATION [3]: 37.3 G/DL
- MEAN CORPUSCULAR VOLUME [3]: 61.67 fL
- MONOCYTE [3]: 2%
- NEUTROPHIL [3]: 11.67%
- NUCLEATED RED BLOOD CELLS [3]: 0.33 /100WBC
- PLATELET COUNT [3]: 1006 x10E3/uL
- ALANINE AMINOTRANSFERASE [3]: 42.67 u/L
- ALBUMIN [3]: 4.37 G/DL
- ALKALINE PHOSPHATASE [3]: 351 u/L
- ASPARTATE AMINOTRANSFERASE [3]: 74 u/L
- BLOOD UREA NITROGEN [3]: 14 mg/dL
- CARBON DIOXIDE [3]: 30 mmol/L
- CHLORIDE [3]: 100.67 MEQ/L
- CHOLESTEROL [3]: 85 mg/dL
- CREATINE PHOSPHOKINASE [3]: 192.67 u/L
- CREATININE [3]: 0.21 mg/dL
- GLUCOSE [3]: 153.33 mg/dL
- LACTATE DEHYDROGENASE [3]: 151.33 u/L
- LIPASE [3]: 11.33 u/L
- PHOSPHORUS [3]: 12.27 mg/dL
- POTASSIUM [3]: 6.3 MEQ/L
- SODIUM [3]: 144.5 MEQ/L
- TOTAL BILIRUBIN [3]: 0.1 mg/dL
- TOTAL PROTEIN [3]: 6.13 G/DL
- URIC ACID [3]: 1.47 mg/dL
